Source: US20110105493A1, “HETEROCYCLYL SUBSTITUTED ARYLINDENOPYRIMIDINES AND THEIR USE AS HIGHLY SELECTIVE ADENOSINE A2a RECEPTOR ANTAGONISTS” (priority 2009, published 2011)

What was measured:
[1] = biological target: T1, human adenosine A2A receptor (Homo sapiens, UniProt P29274); experiment: Adenosine A2A Receptor Functional Assay (A2A GAL2); assay type: cell-based; settings: for IC50: CHO-K1 cells overexpressing human A2A receptor, cAMP inducible beta-galactosidase reporter, 15 nM NECA agonist challenge, read-out: A2AGal2; for A1/A2A: ratio of A1Gal2 to A2AGal2 values
T1 construct: expressed in transfected cells; host or cells: CHO-K1 cells with a cAMP inducible beta-galactosidase reporter gene
T1 sequence (P29274 whole entry): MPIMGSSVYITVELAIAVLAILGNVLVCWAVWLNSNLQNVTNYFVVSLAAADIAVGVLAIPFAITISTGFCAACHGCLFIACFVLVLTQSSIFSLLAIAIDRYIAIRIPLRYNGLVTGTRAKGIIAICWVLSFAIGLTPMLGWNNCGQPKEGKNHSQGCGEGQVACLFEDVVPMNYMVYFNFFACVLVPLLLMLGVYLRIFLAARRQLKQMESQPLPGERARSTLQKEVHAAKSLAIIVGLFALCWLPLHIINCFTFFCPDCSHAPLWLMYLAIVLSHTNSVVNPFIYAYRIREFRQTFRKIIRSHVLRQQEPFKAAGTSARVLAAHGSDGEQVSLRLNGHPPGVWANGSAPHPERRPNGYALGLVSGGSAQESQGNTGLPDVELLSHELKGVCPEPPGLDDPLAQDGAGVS
Experimental: Adenosine A2A Receptor Functional Assay (A2A GAL2)
To initiate the functional assay, cryopreserved CHO—K1 cells overexpressing the human adenosine A2A receptor and containing a cAMP inducible beta-galactosidase reporter gene were thawed, centrifuged, DMSO containing media removed, and then seeded with fresh culture media into clear 384-well tissue culture treated plates (BD #353961) at a concentration of 10K cells/well. Prior to assay, these plates were cultured for two days at 37° C., 5% CO2, 90% Rh. On the day of the functional assay, culture media was removed and replaced with 45 μL assay medium (Hams/F-12 Modified (Mediatech # 10-080CV) supplemented w/0.1% BSA). Test compounds were diluted and 11 point curves created at a 1000× concentration in 100% DMSO. Immediately after addition of assay media to the cell plates, 50 nL of the appropriate test compound antagonist or agonist control curves were added to cell plates using a Cartesian Hummingbird. Compound curves were allowed to incubate at room temperature on cell plates for approximately 15 minutes before addition of a 15 nM NECA (Sigma E2387) agonist challenge (5 μL volume). A control curve of NECA, a DMSO/Media control, and a single dose of Forskolin (Sigma F3917) were also included on each plate. After additions, cell plates were allowed to incubate at 37° C., 5% CO2, 90% Rh for 5.5-6 hours. After incubation, media were removed, and cell plates were washed 1×50 μL with DPBS w/o Ca & Mg (Mediatech 21-031-CV). Into dry wells, 20 μL of 1×Reporter Lysis Buffer (Promega E3971 (diluted in dH2O from 5× stock)) was added to each well and plates frozen at −20° C. overnight. For β-galactosidase enzyme colorimetric assay, plates were thawed out at room temperature and 20 μL 2× assay buffer (Promega) was added to each well. Color was allowed to develop at 37° C., 5% CO2, 90% Rh for 1-1.5 h or until reasonable signal appeared. The colorimetric reaction was stopped with the addition of 60 μL/well 1M sodium carbonate. Plates were counted at 405 nm on a SpectraMax Microplate Reader (Molecular Devices). Data was analyzed in Microsoft Excel and IC/EC50 curves were fit using a standardized macro.

[2] = biological target: T2, human adenosine A1 receptor (Homo sapiens, UniProt P30542); experiment: Adenosine A1 Receptor Functional Assay (A1GAL2); assay type: cell-based; settings: CHO-K1 cells overexpressing human A1 receptor, cAMP inducible beta-galactosidase reporter, 4 nM r-PIA/1 uM Forskolin agonist challenge
T2 construct: expressed in transfected cells; host or cells: CHO-K1 cells with a cAMP inducible beta-galactosidase reporter gene
T2 sequence (P30542 1-326): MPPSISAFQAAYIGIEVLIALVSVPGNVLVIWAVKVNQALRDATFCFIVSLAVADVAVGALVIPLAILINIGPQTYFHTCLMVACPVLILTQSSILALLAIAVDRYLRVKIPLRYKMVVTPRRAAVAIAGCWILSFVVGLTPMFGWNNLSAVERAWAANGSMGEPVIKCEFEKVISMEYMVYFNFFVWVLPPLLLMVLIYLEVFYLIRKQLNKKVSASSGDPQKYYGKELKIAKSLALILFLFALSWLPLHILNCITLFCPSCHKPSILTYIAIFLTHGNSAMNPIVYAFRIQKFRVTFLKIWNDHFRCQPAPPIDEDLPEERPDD
Experimental: Adenosine A1 Receptor Functional Assay (A1GAL2)
To initiate the functional assay, cryopreserved CHO—K1 cells overexpressing the human adenosine A1 receptor and containing a cAMP inducible beta-galactosidase reporter gene were thawed, centrifuged, DMSO containing media removed, and then seeded with fresh culture media into clear 384-well tissue culture treated plates (BD #353961) at a concentration of 10K cells/well. Prior to assay, these plates were cultured for two days at 37° C., 5% CO2, 90% Rh. On the day of the functional assay, culture media was removed and replaced with 45 μL assay medium (Hams/F-12 Modified (Mediatech # 10-080CV) supplemented w/0.1% BSA). Test compounds were diluted and 11 point curves created at a 1000× concentration in 100% DMSO. Immediately after addition of assay media to the cell plates, 50 nL of the appropriate test compound antagonist or agonist control curves were added to cell plates using a Cartesian Hummingbird. Compound curves were allowed to incubate at room temperature on cell plates for approximately 15 minutes before addition of a 4 nM r-PIA (Sigma P4532)/1 uM Forskolin (Sigma F3917) agonist challenge (5 μL volume). A control curve of r-PIA in1 uM Forskolin, a DMSO/Media control, and a single dose of Forskolin were also included on each plate. After additions, cell plates were allowed to incubate at 37° C., 5% CO2, 90% Rh for 5.5-6 hours. After incubation, media was removed, and cell plates were washed 1×50 μL with DPBS w/o Ca & Mg (Mediatech 21-031-CV). Into dry wells, 20 μL of 1×Reporter Lysis Buffer (Promega E3971 (diluted in dH2O from 5× stock)) was added to each well and plates frozen at −20° C. overnight. For β-galactosidase enzyme colorimetric assay, plates were thawed out at room temperature and 20 μL 2×assay buffer (Promega) was added to each well. Color was allowed to develop at 37° C., 5% CO2, 90% Rh for 1-1.5 h or until reasonable signal appeared. The colorimetric reaction was stopped with the addition of 60 μL/well 1M sodium carbonate. Plates were counted at 405 nm on a SpectraMax Microplate Reader (Molecular Devices). Data was analyzed in Microsoft Excel and IC/EC50 curves were fit using a standardized macro.

SMILES	IC50 [1] [nM]	A1/A2A [1]	IC50 [2] [nM]
N#Cc1ccc(N2CCN(c3cccc4c3-c3nc(N)nc(-c5ccccc5)c3C4=O)CC2)nc1 [Example 8, 6-[4-(2-Amino-5-oxo-4-phenyl-5H-indeno[1,2-d]pyrimidin-9-yl)-piperazin-1-yl]-nicotinonitrile]	2.7	777.778	2100
Nc1nc(-c2ccccc2)c2c(n1)-c1c(cccc1N1CCN(c3ncccc3F)CC1)C2=O [Example 10, 2-Amino-9-[4-(3-fluoro-pyridin-2-yl)-piperazin-1-yl]-4-phenyl-indeno[1,2-d]pyrimidin-5-one]	2.6	730.769	1900
N#Cc1cccnc1N1CCN(c2cccc3c2-c2nc(N)nc(-c4ccccc4)c2C3=O)CC1 [Example 14, 2-[4-(2-Amino-5-oxo-4-phenyl-5H-indeno[1,2-d]pyrimidin-9-yl)-piperazin-1-yl]-nicotinonitrile]	3.2	437.5	1400
Nc1nc(-c2ccccc2)c2c(n1)-c1c(cccc1N1CCN(c3ccccc3F)CC1)C2=O [Example 4, 2-Amino-9-[4-(2-fluoro-phenyl)-piperazin-1-yl]-4-phenyl-indeno[1,2-d]pyrimidin-5-one]	1.2	1583.33	1900
CS(=O)(=O)c1ccc(N2CCN(c3cccc4c3-c3nc(N)nc(-c5ccccc5)c3C4=O)CC2)cc1 [Example 15, 2-Amino-9-[4-(4-methanesulfonyl-phenyl)-piperazin-1-yl]-4-phenyl-indeno[1,2-d]pyrimidin-5-one]	0.44	227.273	100
COCCOc1ccc(N2CCN(c3cccc4c3-c3nc(N)nc(-c5ccccc5)c3C4=O)CC2)cc1 [Example 11, 2-Amino-9-{4-[4-(2-methoxy-ethoxy)-phenyl]-piperazin-1-yl}-4-phenyl-indeno[1,2-d]pyrimidin-5-one]	0.36	694.444	250
Nc1nc(-c2ccccc2)c2c(n1)-c1c(cccc1N1CCN(c3ccccn3)CC1)C2=O [Example 17, 2-Amino-4-phenyl-9-(4-pyridin-2-yl-piperazin-1-yl)-indeno[1,2-d]pyrimidin-5-one]	1.4	142.857	200
COc1ccc(C2CCN(c3cccc4c3-c3nc(N)nc(-c5ccccc5)c3C4=O)CC2)cc1 [Example 18, 2-Amino-9-[4-(4-methoxy-phenyl)-piperidin-1-yl]-4-phenyl-indeno[1,2-d]pyrimidin-5-one]	4.5	133.333	600
Nc1nc(-c2ccccc2)c2c(n1)-c1c(cccc1N1CCN(c3cccnc3)CC1)C2=O [Example 26, 2-Amino-4-phenyl-9-(4-pyridin-3-yl-piperazin-1-yl)-indeno[1,2-d]pyrimidin-5-one]	0.6	51.6667	31
Nc1nc(-c2ccccc2)c2c(n1)-c1c(cccc1N1CCN(c3ccc(C(F)(F)F)cc3)CC1)C2=O [Example 9, 2-Amino-4-phenyl-9-[4-(4-trifluoromethyl-phenyl)-piperazin-1-yl]-indeno[1,2-d]pyrimidin-5-one]	8.1	765.432	6200
COCCOc1ccc(N2CCN(c3cccc4c3-c3nc(N)nc(-c5ccccc5)c3C4=O)CC2)c(F)c1 [Example 5, 2-Amino-9-{4-[2-fluoro-4-(2-methoxy-ethoxy)-phenyl]-piperazin-1-yl}-4-phenyl-indeno[1,2-d]pyrimidin-5-one]	0.49	1530.61	750
CCCN1CCN(c2cccc3c2-c2nc(N)nc(-c4ccccc4)c2C3=O)CC1 [Example 19, 2-Amino-4-phenyl-9-(4-propyl-piperazin-1-yl)-indeno[1,2-d]pyrimidin-5-one]	10.3	104.858	1080
Nc1nc(-c2ccccc2)c2c(n1)-c1c(cccc1N1CCN(c3ccc(F)cn3)CC1)C2=O [Example 2, 2-Amino-9-[4-(5-fluoro-pyridin-2-yl)-piperazin-1-yl]-4-phenyl-indeno[1,2-d]pyrimidin-5-one]	1.6	5937.5	9500
Nc1nc(-c2ccccc2)c2c(n1)-c1c(cccc1N1CCN(CC3CC3)CC1)C2=O [Example 22, 2-Amino-9-(4-cyclopropylmethyl-piperazin-1-yl)-4-phenyl-indeno[1,2-d]pyrimidin-5-one]	10.6	77.5711	818
Nc1nc(-c2ccccc2)c2c(n1)-c1c(cccc1N1CCC(N3CCOCC3)CC1)C2=O [Example 24, 2-Amino-9-(4-morpholin-4-yl-piperidin-1-yl)-4-phenyl-indeno[1,2-d]pyrimidin-5-one]	4.7	57.4468	270
Nc1nc(-c2ccccc2)c2c(n1)-c1c(cccc1N1CCN(c3ccc(Cl)cc3)CC1)C2=O [Example 21, 2-Amino-9-[4-(4-chloro-phenyl)-piperazin-1-yl]-4-phenyl-indeno[1,2-d]pyrimidin-5-one]	1.5	80	120
COc1ccc(N2CCN(c3cccc4c3-c3nc(N)nc(-c5ccccc5)c3C4=O)CC2)cc1 [Example 16, 2-Amino-9-[4-(4-methoxy-phenyl)-piperazin-1-yl]-4-phenyl-indeno[1,2-d]pyrimidin-5-one]	0.14	178.571	25
N#Cc1ccccc1N1CCN(c2cccc3c2-c2nc(N)nc(-c4ccccc4)c2C3=O)CC1 [Example 7, 2-[4-(2-Amino-5-oxo-4-phenyl-5H-indeno[1,2-d]pyrimidin-9-yl)-piperazin-1-yl]-benzonitrile]	2.7	1074.07	2900
Nc1nc(-c2ccccc2)c2c(n1)-c1c(cccc1N1CCN(CCc3ccccc3)CC1)C2=O [Example 12, 2-Amino-9-(4-phenethyl-piperazin-1-yl)-4-phenyl-indeno[1,2-d]pyrimidin-5-one]	2.27	463.233	1050
CC(=O)c1ccc(N2CCN(c3cccc4c3-c3nc(N)nc(-c5ccccc5)c3C4=O)CC2)cc1 [Example 1, 9-[4-(4-Acetyl-phenyl)-piperazin-1-yl]-2-amino-4-phenyl-indeno[1,2-d]pyrimidin-5-one]	0.2	20250	4050
